Measured values published in patent publication US7192931B2, “Treatment of demyelinating diseases” (Neuren Pharmaceuticals Ltd., priority 2000, dated 2007).

Assays:
Assay type in all cases: in vivo, mouse
[1] = test system: C57Bl/6 mice with MOG35-55 peptide-induced EAE; experiment: Expanded disability status scale for EAE treated mice; conditions: for Maximal disability score: Alertness / Maximal disability score: Bladder function / Maximal disability score: Eye movements / Maximal disability score: Motor (grip)* / Maximal disability score: Other signs (shine hairs and loose skin) / Maximal disability score: Sensory* Light touch / Maximal disability score: Sensory* Pain / Maximal disability score: Spontaneous mobility / Maximal disability score: Tone* / Maximal disability score: Tremor / Maximal disability score: Vision (including pupillary reflex) / Total expanded disability scale: mean values
Protocol: (§1) C57Bl/6 mice (8–10 week old) were injected subcutaneously in one flank with 300 μg of MOG35-55 peptide ([…]: SEQ ID NO:1) synthesized by Mimotapes Pty Ltd, Clayton, Australia and emulsified in CFA containing 500 μg of Mycobacterium tuberculosis H37Ra (DIFCO Laboratories, Detrit, USA). They also received 500 ng of pertussis toxin (List Biological Laboratories, CA, USA) in 200 μl PBS intravenously via the tail vein, followed 48 hours later by a second dose. A second injection of MOG peptide was given in the absence of pertussis toxin one week later in the opposite flank, as described previously (Kanwar et al., 2000b).
(§2) Two treatment protocols were employed, involving the treatment of early disease, versus advanced disease. For early disease, reagents were administered at day 35 (following MOG injection). Antibody was administered thrice on alternate days, whereas neuroprotectors were given daily for 6 days, where 50% of reagent was given ip and 50% iv. In the treatment of advanced disease, therapy as above was initiated at day 60, with either three or eight anti-MAdCAM-1 mAb injections, and neuroprotectors given daily for either 7 or 18 days.
The mice were monitored daily and scored according to the following scale: 0, no clinical signs of EAE; 1, limp tail; 2, partial hind limb paralysis; 3, complete hind limb paralysis; 4, complete hind limb and partial fore limb paralysis; 5, paralysis extending to diaphragm; 6, hind and fore limb paralysis; 7, death due to EAE. Paralysis extending to the diaphragm was denoted as difficulty in remaining upright. […] The daily mean clinical score for each group is the mean disease score of at least five mice. The body weight of animals was measured regularly throughout the experiments. The expanded disability status scale for EAE treated mice was scored using an earlier published scoring system (Villoslada et al. 2000).

[2] = test system: GluR2; experiment: GluR2 subunit expression in spinal cord; conditions: spinal cord of EAE mice, immunohistochemistry and Western blot
Excerpt: Frozen sections from lumbar spinal cord (10 μm) were acetone-fixed and immunostained for oligodendrocyte content with an antibody against CNPase (Sigma; diluted 1:100); for axonal damage with an antibody against non-phosphorylated neurofilament-H (SM 1-32; Stemberger Monoclonals Incorporated, Lutherville, Md., USA; diluted 1:1000), and for GluR2 and NR1 content using mouse mAbs obtained from Zymed Laboratories Inc., Carlton, San Francisco, Calif. Antibody staining was visualized with an avidin:biotinylated enzyme complex (Vector Laboratories, Burlingame, Calif., USA). Sections were viewed under a light microscope, and cells stained with the anti-CNPase and SM 1-32 antibodies were counted.
PBS-perfused spinal cords were homogenized in lysis buffer (50 mM Tris pH 7.4, 100 μM EDTA, 0.25 M sucrose, 1% sodium dodecyl sulfate [SDS], 1% Nonidet P-40 [NP40], 1 μg/mL leupeptin, 1 μg/mL pepstatin A, and 100 μM phenylmethylsulfonylfluoride) at 4° C. using a motor-driven homogenizer (Virtus, Gardiner, N.Y.). […] The membranes were washed thrice with TBS-T and incubated with horseradish peroxidase-conjugated anti-mouse IgG (Sigma) diluted 1:5000 in TBS-T. Immunoreactivity was detected by Enhanced Chemiluminescence (Amersham International plc. England) and autoradiography.

[3] = test system: C57Bl/6 mice with MOG35-55 peptide-induced EAE; experiment: Neuropathology scoring of spinal cord sections (pathology status scale); conditions: for Pathology status scale: Oligodendrocytes** / Pathology status scale: Remyelination**: reverse scores; for Pathology status scale: Axonal damage / Pathology status scale: Demyelination / Pathology status scale: Inflammation: scored 0 to 5
Protocol: as §1, §2
Mice were perfused through the left cardiac ventricle with ice-cold PBS or glutaraldehyde, and the CNS including brain and spinal cord were prepared for frozen or epoxy sections, respectively. Thin slices were taken at all levels of the CNS including spinal cord (cervical, midthoracic, T11, T12/13, upper lumbar, L6, L7 and sacral) and sacral roots. One-μm thick epoxy sections taken from different levels of the spinal cord were stained with toluidine blue, and examined by light microscopy by an investigator blinded to the sample identity. Multiple sections from the spinal cord were scored from 0 to 5 for inflammation, demyelination, remyelination, and axonal necrosis or damage, using a previously published scoring system (Moore et al., 2000).

Q: Which results are given for Gly-Pro-Glu [GPE]?
A: total scores (disability scale) ([1]; at day 70 as printed, 35 for rat IgG treated control mice): 10; Maximal disability score: Alertness ([1]; day 55 after immunization): 2; Maximal disability score: Bladder function ([1]; day 55 after immunization): 0; Maximal disability score: Eye movements ([1]; day 55 after immunization): 1; Maximal disability score: Motor (grip)* ([1]; day 55 after immunization): 12; Maximal disability score: Other signs (shine hairs and loose skin) ([1]; day 55 after immunization): 3; Maximal disability score: Sensory* Light touch ([1]; day 55 after immunization): 8; Maximal disability score: Sensory* Pain ([1]; day 55 after immunization): 8; Maximal disability score: Spontaneous mobility ([1]; day 55 after immunization): 3; Maximal disability score: Tone* ([1]; day 55 after immunization): 12; Maximal disability score: Tremor ([1]; day 55 after immunization): 2; Maximal disability score: Vision (including pupillary reflex) ([1]; day 55 after immunization): 1; Total expanded disability scale ([1]; day 55 after immunization): 52; Maximal disability score: Alertness ([1]; day 60 after immunization): 2; Maximal disability score: Bladder function ([1]; day 60 after immunization): 1; Maximal disability score: Eye movements ([1]; day 60 after immunization): 1; Maximal disability score: Motor (grip)* ([1]; day 60 after immunization): 12; Maximal disability score: Other signs (shine hairs and loose skin) ([1]; day 60 after immunization): 2; Maximal disability score: Sensory* Light touch ([1]; day 60 after immunization): 8; Maximal disability score: Sensory* Pain ([1]; day 60 after immunization): 8; Maximal disability score: Spontaneous mobility ([1]; day 60 after immunization): 3; Maximal disability score: Tone* ([1]; day 60 after immunization): 12; Maximal disability score: Tremor ([1]; day 60 after immunization): 2; Maximal disability score: Vision (including pupillary reflex) ([1]; day 60 after immunization): 1; Total expanded disability scale ([1]; day 60 after immunization): 52; Maximal disability score: Alertness ([1]; day 65 after immunization): 1; Maximal disability score: Bladder function ([1]; day 65 after immunization): 0; Maximal disability score: Eye movements ([1]; day 65 after immunization): 0; Maximal disability score: Motor (grip)* ([1]; day 65 after immunization): 4; Maximal disability score: Other signs (shine hairs and loose skin) ([1]; day 65 after immunization): 0; Maximal disability score: Sensory* Light touch ([1]; day 65 after immunization): 0; Maximal disability score: Sensory* Pain ([1]; day 65 after immunization): 0; Maximal disability score: Spontaneous mobility ([1]; day 65 after immunization): 2; Maximal disability score: Tone* ([1]; day 65 after immunization): 8; Maximal disability score: Tremor ([1]; day 65 after immunization): 0; Maximal disability score: Vision (including pupillary reflex) ([1]; day 65 after immunization): 0; Total expanded disability scale ([1]; day 65 after immunization): 15; Maximal disability score: Alertness ([1]; day 70 after immunization): 1; Maximal disability score: Bladder function ([1]; day 70 after immunization): 0; Maximal disability score: Eye movements ([1]; day 70 after immunization): 1; Maximal disability score: Motor (grip)* ([1]; day 70 after immunization): 4; Maximal disability score: Other signs (shine hairs and loose skin) ([1]; day 70 after immunization): 0; Maximal disability score: Sensory* Light touch ([1]; day 70 after immunization): 0; Maximal disability score: Sensory* Pain ([1]; day 70 after immunization): 0; Maximal disability score: Spontaneous mobility ([1]; day 70 after immunization): 3; Maximal disability score: Tone* ([1]; day 70 after immunization): 4; Maximal disability score: Tremor ([1]; day 70 after immunization): 0; Maximal disability score: Vision (including pupillary reflex) ([1]; day 70 after immunization): 0; Total expanded disability scale ([1]; day 70 after immunization): 13; Maximal disability score: Alertness ([1]; day 75 after immunization): 1; Maximal disability score: Bladder function ([1]; day 75 after immunization): 1; Maximal disability score: Eye movements ([1]; day 75 after immunization): 0; Maximal disability score: Motor (grip)* ([1]; day 75 after immunization): 0; Maximal disability score: Other signs (shine hairs and loose skin) ([1]; day 75 after immunization): 0; Maximal disability score: Sensory* Light touch ([1]; day 75 after immunization): 0; Maximal disability score: Sensory* Pain ([1]; day 75 after immunization): 0; Maximal disability score: Spontaneous mobility ([1]; day 75 after immunization): 3; Maximal disability score: Tone* ([1]; day 75 after immunization): 4; Maximal disability score: Tremor ([1]; day 75 after immunization): 0; Maximal disability score: Vision (including pupillary reflex) ([1]; day 75 after immunization): 1; Total expanded disability scale ([1]; day 75 after immunization): 10; Maximal disability score: Alertness ([1]; day 119 after immunization): 1; Maximal disability score: Bladder function ([1]; day 119 after immunization): 0; Maximal disability score: Eye movements ([1]; day 119 after immunization): 1; Maximal disability score: Motor (grip)* ([1]; day 119 after immunization): 0; Maximal disability score: Other signs (shine hairs and loose skin) ([1]; day 119 after immunization): 0; Maximal disability score: Sensory* Light touch ([1]; day 119 after immunization): 4; Maximal disability score: Sensory* Pain ([1]; day 119 after immunization): 4; Maximal disability score: Spontaneous mobility ([1]; day 119 after immunization): 2; Maximal disability score: Tone* ([1]; day 119 after immunization): 4; Maximal disability score: Tremor ([1]; day 119 after immunization): 1; Maximal disability score: Vision (including pupillary reflex) ([1]; day 119 after immunization): 0; Total expanded disability scale ([1]; day 119 after immunization): 17; GluR2 expression [2]: negligible effect; Pathology status scale: Apoptosis ([3]; day 45): 3; Pathology status scale: Oligodendrocytes** ([3]; day 45): 3; Pathology status scale: Remyelination** ([3]; day 45): 2; Pathology status scale: Axonal damage ([3]; day 45): 3; Pathology status scale: Demyelination ([3]; day 45): 3; Pathology status scale: Inflammation ([3]; day 45): 2; Pathology status scale: Apoptosis ([3]; day 60): 3; Pathology status scale: Oligodendrocytes** ([3]; day 60): 3; Pathology status scale: Remyelination** ([3]; day 60): 3; Pathology status scale: Axonal damage ([3]; day 60): 3; Pathology status scale: Demyelination ([3]; day 60): 3; Pathology status scale: Inflammation ([3]; day 60): 3; Pathology status scale: Apoptosis ([3]; day 65): 2; Pathology status scale: Oligodendrocytes** ([3]; day 65): 2; Pathology status scale: Remyelination** ([3]; day 65): 2; Pathology status scale: Axonal damage ([3]; day 65): 2; Pathology status scale: Demyelination ([3]; day 65): 2; Pathology status scale: Inflammation ([3]; day 65): 2; Pathology status scale: Apoptosis ([3]; day 70): 3; Pathology status scale: Oligodendrocytes** ([3]; day 70): 2; Pathology status scale: Remyelination** ([3]; day 70): 2; Pathology status scale: Axonal damage ([3]; day 70): 3; Pathology status scale: Demyelination ([3]; day 70): 3; Pathology status scale: Inflammation ([3]; day 70): 2; Pathology status scale: Apoptosis ([3]; day 119): 2; Pathology status scale: Oligodendrocytes** ([3]; day 119): 2; Pathology status scale: Remyelination** ([3]; day 119): 1; Pathology status scale: Axonal damage ([3]; day 119): 2; Pathology status scale: Demyelination ([3]; day 119): 2; Pathology status scale: Inflammation ([3]; day 119): 1; Total scores After treatment (pathology status scale) ([3]; sum over the six pathology parameters after treatment): 55; cumulative scores for inflammation, demyelination, remyelination, apoptosis, oligodendrocyte loss, and axonal damage following treatment ([3]; text statement of Table 2 totals): 55
